{"source": "paper PMC10987348", "about": "“Ammonium nanochelators in conjunction with arginine-specific enzymes in amperometric biosensors for arginine assay” (Mikrochimica Acta, 2023)", "target": "T1, ADI (Metamycoplasma hominis, UniProt P41141)", "T1 construct": "gene arcA", "T1 sequence (P41141 2-409)": "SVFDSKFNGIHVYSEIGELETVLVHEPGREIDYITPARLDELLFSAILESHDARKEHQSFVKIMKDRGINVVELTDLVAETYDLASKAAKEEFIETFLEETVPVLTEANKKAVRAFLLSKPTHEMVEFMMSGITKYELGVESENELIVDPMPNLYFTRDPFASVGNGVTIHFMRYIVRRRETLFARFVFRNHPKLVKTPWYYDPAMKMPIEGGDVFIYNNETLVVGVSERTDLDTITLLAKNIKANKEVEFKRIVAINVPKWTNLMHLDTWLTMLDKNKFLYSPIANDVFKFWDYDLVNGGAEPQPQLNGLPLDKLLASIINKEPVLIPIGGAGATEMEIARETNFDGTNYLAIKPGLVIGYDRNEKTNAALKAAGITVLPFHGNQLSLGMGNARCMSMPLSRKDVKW", "assay": "amperometric detection of released ammonium (ADI/nCdCu/GCE electrode)", "type": "biochemical", "conditions": "immobilised enzyme on nCdCu-modified glassy carbon; pH 7.5; -200 mV vs Ag/AgCl", "data": [{"smiles": "N=C(N)NCCC[C@H](N)C(=O)O", "note": "[L-arginine]", "values": [{"measurement": "amperometric detection of released ammonium (ADI/nCdCu/GCE electrode)", "result": "electrocatalytic activity of three bioelectrodes was evaluated by using CV under the addition of Arg"}]}]}
